This passage reports T/C results from PubChem BioAssay AID328 (DTP/NCI, 2004).

Toxic doses and inconclusive results are not listed.

The assay has as its system BDF1 mice, P388 leukemia ip, median survival T/C. The assay is described as follows: NCI In Vivo Anticancer Drug Screen. Data for tumor model P388 Leukemia (intraperitoneal) in B6D2F1 (BDF1) mice. Particulars: endpoint: median survival time, higher = longer survival. The method, boiled down: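 Vehicle-dosed animals serve as the reference; survival of compound-dosed, tumour-implanted mice is divided by it.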

As for `O.[Co].[Co].[NH2-].[NH2-].[NH2-].[NH2-].[NH2-].[NH2-].[NH2-].[NH2-].[NH2-]`, the T/C (dose: 0.5 mg/kg/injection, schedule: Q01DX009 (ip), vehicle: water) is 100 % of control; the T/C (dose: 1.5 mg/kg/injection, schedule: Q04DX003 (ip), vehicle: water) is 121 % of control; the T/C (dose: 2.0 mg/kg/injection, schedule: Q01DX009 (ip), vehicle: water) is 95 % of control; the T/C (dose: 3.0 mg/kg/injection, schedule: Q04DX003 (ip), vehicle: water) was 95 % of control; the T/C (dose: 4.0 mg/kg/injection, schedule: Q01DX009 (ip), vehicle: water) was 100 % of control.

Consider `O=C(CCN1CCCCC1)c1ccccc1`, for which the T/C runs as follows: (dose: 12.5 mg/kg/injection, schedule: Q01DX009 (ip), vehicle: saline) 89 % of control; (dose: 25.0 mg/kg/injection, schedule: Q01DX009 (ip), vehicle: saline) 95 % of control; (dose: 25.0 mg/kg/injection, schedule: Q04DX003 (ip), vehicle: saline) 95 % of control.

`COc1cc(C(=O)N2CCN(c3ccccc3)CC2)c2ccccc2n1`: the T/C by setting is: (dose: 180.0 mg/kg/injection, schedule: Q01DX010 (ip), vehicle: carboxymethylcellulose (CMC)) 114 % of control; (dose: 266.0 mg/kg/injection, schedule: Q01DX010 (ip), vehicle: carboxymethylcellulose (CMC)) 104 % of control; (dose: 400.0 mg/kg/injection, schedule: Q01DX010 (ip), vehicle: carboxymethylcellulose (CMC)) 104 % of control; (dose: 600.0 mg/kg/injection, schedule: Q01DX010 (ip), vehicle: carboxymethylcellulose (CMC)) 95 % of control.

For `C[n+]1cccc(NC(=O)c2ccc(NC(=O)c3ccc(C(=O)Nc4ccc(NC(=N)N)cc4)cc3)cc2)c1`, the T/C reads like this: (dose: 3.3 mg/kg/injection, schedule: Q04DX003 (ip), vehicle: saline) 150 % of control; (dose: 5.0 mg/kg/injection, schedule: Q04DX003 (ip), vehicle: saline) 159 % of control; (dose: 5.56 mg/kg/injection, schedule: Q04DX003 (ip), vehicle: saline) 180 % of control; (dose: 7.5 mg/kg/injection, schedule: Q04DX003 (ip), vehicle: saline) 195 % of control; (dose: 8.33 mg/kg/injection, schedule: Q04DX003 (ip), vehicle: saline) 235 % of control; (dose: 12.5 mg/kg/injection, schedule: Q04DX003 (ip), vehicle: saline) 235 % of control. Further, under “dose: 18.7 mg/kg/injection, schedule: Q04DX003 (ip), vehicle: saline”, the T/C was 155 % of control.

Turning to `C/C=C1/CC(C)C(C)(O)C(=O)OCC2CCN3CCC(OC1=O)C23` (stereo not drawn), the T/C (dose: 25.0 mg/kg/injection, schedule: Q01DX010 (ip), vehicle: saline) is 111 % of control; the T/C (dose: 50.0 mg/kg/injection, schedule: Q01DX010 (ip), vehicle: saline) is 116 % of control; the T/C (dose: 100.0 mg/kg/injection, schedule: Q01DX010 (ip), vehicle: saline) was 116 % of control.

As to `CC1(CCNC2CCCCC2)Oc2ccccc2O1`, the T/C by setting is: (dose: 50.0 mg/kg/injection, schedule: Q04DX002 (ip), vehicle: Klucel (hydroxypropylcellulose) (HPC)) 99 % of control; (dose: 100.0 mg/kg/injection, schedule: Q04DX002 (ip), vehicle: Klucel (hydroxypropylcellulose) (HPC)) 101 % of control.

As to `CC(=O)OC1CCC2(C)C3CCC4(C)C(=CCC5(C(=O)O)CCC(C)(C)CC45)C3(C)CCC2C1(C)C` (stereo not drawn), the T/C by setting is: (dose: 0.12 mg/kg/injection, schedule: Q01DX009 (ip), vehicle: alcohol) 111 % of control; (dose: 0.25 mg/kg/injection, schedule: Q01DX009 (ip), vehicle: alcohol) 106 % of control; (dose: 0.5 mg/kg/injection, schedule: Q01DX009 (ip), vehicle: alcohol) 116 % of control.

With `Cc1cn(C)c2nccnc12`, the T/C reads like this: (dose: 12.5 mg/kg/injection, schedule: Q01DX009 (ip), vehicle: water) 100 % of control; (dose: 12.5 mg/kg/injection, schedule: Q04DX003 (ip), vehicle: water) 102 % of control; (dose: 25.0 mg/kg/injection, schedule: Q01DX009 (ip), vehicle: water) 107 % of control; (dose: 25.0 mg/kg/injection, schedule: Q04DX003 (ip), vehicle: water) 96 % of control; (dose: 50.0 mg/kg/injection, schedule: Q01DX009 (ip), vehicle: water) 98 % of control; (dose: 50.0 mg/kg/injection, schedule: Q04DX003 (ip), vehicle: water) 112 % of control. Also, the T/C reads like this: (dose: 100.0 mg/kg/injection, schedule: Q01DX009 (ip), vehicle: water) 100 % of control; (dose: 100.0 mg/kg/injection, schedule: Q04DX003 (ip), vehicle: water) 117 % of control; (dose: 200.0 mg/kg/injection, schedule: Q01DX009 (ip), vehicle: water) 104 % of control; (dose: 200.0 mg/kg/injection, schedule: Q04DX003 (ip), vehicle: water) 98 % of control; (dose: 300.0 mg/kg/injection, schedule: Q04DX003 (ip), vehicle: water) 94 % of control.
